From PubChem BioAssay AID2060887 (Molecular Pharmacology Branch, DTP, NCI, 2025)

System: 782815-120-R-J1-PDC complex spheroid viability
Test: Anticancer human tumor 782815-120-R-J1-PDC patient-derived colon adenocarcinoma cell line growth inhibition [RAS]
Details: for viability, T/C: stronger effect = lower value
Summary of the method: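 Agents were tested in combination matrices in half-log decrements from a top concentration at or near clinical Cmax (10 microM if undetermined). Targets were multi-cell spheroids of tumour lines plus HUVEC and MSC stromal cells.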
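Also: spheroids exposed to compounds for 7 days before reading.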
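For viability, T/C in this document: 100% = DMSO vehicle control viability.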

Structure (SMILES): CC(Nc1ccc2c(c1)OCCn1cc(N3C(=O)OCC3C(F)F)nc1-2)C(N)=O (stereo not given) + CCn1c(-c2cccnc2C(C)OC)c2c3cc(ccc31)N1CCOC(CC(NC(=O)C(C(C)C)N(C)C(=O)C3(F)CCN(C(=O)C#CC(C)(C)N(C)C)CC3)C(=O)N3CCCC(N3)C(=O)OCC(C)(C)C2)C1
- IC50 (curve of first compound, second compound 0.000949 µM): > 10 µM
- IC50 (curve of first compound, second compound 0.003 µM): > 10 µM
- IC50 (curve of first compound, second compound 0.00949 µM): > 10 µM
- IC50 (curve of first compound, second compound 0.03 µM): > 10 µM
- IC50 (curve of first compound, second compound 0.0949 µM): > 10 µM
- IC50 (curve of first compound, second compound 0.3 µM): > 10 µM
- viability, T/C (second compound 0.000949 µM, first compound 0.0316 µM): 93.3%
- viability, T/C (second compound 0.000949 µM, first compound 0.1 µM): 93.9%
- viability, T/C (second compound 0.000949 µM, first compound 0.316 µM): 82.2%
- viability, T/C (second compound 0.000949 µM, first compound 1 µM): 95.2%
- viability, T/C (second compound 0.000949 µM, first compound 3.16 µM): 99.2%
- viability, T/C (second compound 0.000949 µM, first compound 10 µM): 81.4%
- viability, T/C (second compound 0.003 µM, first compound 0.0316 µM): 93.6%
- viability, T/C (second compound 0.003 µM, first compound 0.1 µM): 94.5%
- viability, T/C (second compound 0.003 µM, first compound 0.316 µM): 93%
- viability, T/C (second compound 0.003 µM, first compound 1 µM): 90.8%
- viability, T/C (second compound 0.003 µM, first compound 3.16 µM): 93.5%
- viability, T/C (second compound 0.003 µM, first compound 10 µM): 97.5%
- viability, T/C (second compound 0.00949 µM, first compound 0.0316 µM): 93.4%
- viability, T/C (second compound 0.00949 µM, first compound 0.1 µM): 101%
- viability, T/C (second compound 0.00949 µM, first compound 0.316 µM): 91.1%
- viability, T/C (second compound 0.00949 µM, first compound 1 µM): 95.4%
- viability, T/C (second compound 0.00949 µM, first compound 3.16 µM): 93.8%
- viability, T/C (second compound 0.00949 µM, first compound 10 µM): 90.8%
- viability, T/C (second compound 0.03 µM, first compound 0.0316 µM): 90.7%
- viability, T/C (second compound 0.03 µM, first compound 0.1 µM): 97%
- viability, T/C (second compound 0.03 µM, first compound 0.316 µM): 90.4%
- viability, T/C (second compound 0.03 µM, first compound 1 µM): 89.9%
- viability, T/C (second compound 0.03 µM, first compound 3.16 µM): 102%
- viability, T/C (second compound 0.03 µM, first compound 10 µM): 93.2%
- viability, T/C (second compound 0.0949 µM, first compound 0.0316 µM): 85.9%
- viability, T/C (second compound 0.0949 µM, first compound 0.1 µM): 95.3%
- viability, T/C (second compound 0.0949 µM, first compound 0.316 µM): 81%
- viability, T/C (second compound 0.0949 µM, first compound 1 µM): 98.9%
- viability, T/C (second compound 0.0949 µM, first compound 3.16 µM): 106%
- viability, T/C (second compound 0.0949 µM, first compound 10 µM): 94.8%
- viability, T/C (second compound 0.3 µM, first compound 0.0316 µM): 95.1%
- viability, T/C (second compound 0.3 µM, first compound 0.1 µM): 92%
- viability, T/C (second compound 0.3 µM, first compound 0.316 µM): 90%
- viability, T/C (second compound 0.3 µM, first compound 1 µM): 82.8%
- viability, T/C (second compound 0.3 µM, first compound 3.16 µM): 94.6%
- viability, T/C (second compound 0.3 µM, first compound 10 µM): 87.3%

Structure (SMILES): Nc1ccn(C2OC(CO)C(O)C2(F)F)c(=O)n1 (stereo not given)
- viability, T/C (compound 0.00316 µM): 91.4% [middle of 4 runs]
- viability, T/C (compound 0.01 µM): 71.8% [middle of 4 runs]
- viability, T/C (compound 0.1 µM): 40.8% [middle of 4 runs]
- viability, T/C (compound 0.316 µM): 27% [middle of 4 runs]
- viability, T/C (compound 1 µM): 25.6% [middle of 4 runs]
- IC50 (curve of compound): 60.1 nM [middle of 4 runs]

Structure (SMILES): CCC(CC)c1cc(NC2CCC(N)C2)n2nccc2n1 (stereo not given) + C=CC(=O)N1CCN(c2nc(OCC3CCCN3C)nc3c(F)c(-c4nc(N)cc(C)c4C(F)(F)F)c(Cl)cc23)C(C)C1
- IC50 (curve of first compound, second compound 0.00316 µM): 2.28 µM
- IC50 (curve of first compound, second compound 0.01 µM): 2.32 µM
- IC50 (curve of first compound, second compound 0.0316 µM): 2.45 µM
- IC50 (curve of first compound, second compound 0.1 µM): 2.16 µM
- IC50 (curve of first compound, second compound 0.316 µM): 2.54 µM
- IC50 (curve of first compound, second compound 1 µM): 2.28 µM
- viability, T/C (second compound 0.00316 µM, first compound 0.0316 µM): 108%
- viability, T/C (second compound 0.00316 µM, first compound 0.1 µM): 111%
- viability, T/C (second compound 0.00316 µM, first compound 0.316 µM): 106%
- viability, T/C (second compound 0.00316 µM, first compound 1 µM): 98.3%
- viability, T/C (second compound 0.00316 µM, first compound 3.16 µM): 31%
- viability, T/C (second compound 0.00316 µM, first compound 10 µM): 1.4%
- viability, T/C (second compound 0.01 µM, first compound 0.0316 µM): 105%
- viability, T/C (second compound 0.01 µM, first compound 0.1 µM): 107%
- viability, T/C (second compound 0.01 µM, first compound 0.316 µM): 108%
- viability, T/C (second compound 0.01 µM, first compound 1 µM): 104%
- viability, T/C (second compound 0.01 µM, first compound 3.16 µM): 30.4%
- viability, T/C (second compound 0.01 µM, first compound 10 µM): 1.14%
- viability, T/C (second compound 0.0316 µM, first compound 0.0316 µM): 101%
- viability, T/C (second compound 0.0316 µM, first compound 0.1 µM): 103%
- viability, T/C (second compound 0.0316 µM, first compound 0.316 µM): 95.8%
- viability, T/C (second compound 0.0316 µM, first compound 1 µM): 115%
- viability, T/C (second compound 0.0316 µM, first compound 3.16 µM): 34.6%
- viability, T/C (second compound 0.0316 µM, first compound 10 µM): 1.3%
- viability, T/C (second compound 0.1 µM, first compound 0.0316 µM): 102%
- viability, T/C (second compound 0.1 µM, first compound 0.1 µM): 98.2%
- viability, T/C (second compound 0.1 µM, first compound 0.316 µM): 104%
- viability, T/C (second compound 0.1 µM, first compound 1 µM): 98.4%
- viability, T/C (second compound 0.1 µM, first compound 3.16 µM): 26.2%
- viability, T/C (second compound 0.1 µM, first compound 10 µM): 1.7%
- viability, T/C (second compound 0.316 µM, first compound 0.0316 µM): 103%
- viability, T/C (second compound 0.316 µM, first compound 0.1 µM): 101%
- viability, T/C (second compound 0.316 µM, first compound 0.316 µM): 95.5%
- viability, T/C (second compound 0.316 µM, first compound 1 µM): 106%
- viability, T/C (second compound 0.316 µM, first compound 3.16 µM): 37.9%
- viability, T/C (second compound 0.316 µM, first compound 10 µM): 1.49%
- viability, T/C (second compound 1 µM, first compound 0.0316 µM): 98%
- viability, T/C (second compound 1 µM, first compound 0.1 µM): 104%
- viability, T/C (second compound 1 µM, first compound 0.316 µM): 103%
- viability, T/C (second compound 1 µM, first compound 1 µM): 100%
- viability, T/C (second compound 1 µM, first compound 3.16 µM): 29.9%
- viability, T/C (second compound 1 µM, first compound 10 µM): 2.19%
